Assay results published in patent publication US20080299108A1, “Peptides for Diagnostic and Therapeutic Methods for Celiac Sprue” (priority 2005, published 2008).

What was measured:
[1] = system: pancreatic proteases (elastase, trypsin, chymotrypsin); format: in vitro ADME
Excerpt: Because BBM exopeptidases are restricted to N- or C-terminal processing, it was investigated if generation of additional free peptide ends by pancreatic enzymes would accelerate digestion.

[2] = molecular target: T1, tissue transglutaminase (tTGase) (Homo sapiens, UniProt P21980); settings: cited from earlier work
T1 sequence (P21980 1-687): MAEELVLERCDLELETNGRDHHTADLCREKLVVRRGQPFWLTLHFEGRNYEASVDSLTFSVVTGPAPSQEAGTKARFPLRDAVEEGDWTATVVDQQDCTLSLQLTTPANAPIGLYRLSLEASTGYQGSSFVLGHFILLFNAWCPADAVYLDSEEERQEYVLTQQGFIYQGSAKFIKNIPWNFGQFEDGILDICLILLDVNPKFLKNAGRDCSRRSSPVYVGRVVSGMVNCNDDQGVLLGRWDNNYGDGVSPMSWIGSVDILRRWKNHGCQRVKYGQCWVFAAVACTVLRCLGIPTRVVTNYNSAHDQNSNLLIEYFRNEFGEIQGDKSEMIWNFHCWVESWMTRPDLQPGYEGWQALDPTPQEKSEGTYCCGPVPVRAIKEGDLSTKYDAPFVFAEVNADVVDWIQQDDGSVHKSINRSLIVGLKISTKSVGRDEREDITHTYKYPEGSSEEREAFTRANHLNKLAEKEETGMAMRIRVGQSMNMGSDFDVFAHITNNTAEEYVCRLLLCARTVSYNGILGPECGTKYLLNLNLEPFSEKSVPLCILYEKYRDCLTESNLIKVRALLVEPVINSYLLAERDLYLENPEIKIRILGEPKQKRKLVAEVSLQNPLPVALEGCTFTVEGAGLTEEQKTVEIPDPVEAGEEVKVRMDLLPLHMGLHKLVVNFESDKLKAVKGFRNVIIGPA

[3] = system: rat jejunum; experiment: In vivo intestinal perfusion in intact adult rats; settings: 15-20 cm segment of jejunum, residence time 20 min
[4] = system: rat brush border membrane (BBM) protein; experiment: Rat brush border membrane (BBM) digestion of gliadin peptides, LC-MS; format: in vitro ADME
Protocol: To dissect this complex process, liquid chromatography coupled mass spectroscopy analysis (LC-MS-MS) was utilized to investigate the pathways and associated kinetics of hydrolysis of immunodominant gliadin peptides treated with rat BBM preparations. Because the rodent is an excellent small animal model for human intestinal structure and function, rat BBM was chosen as a suitable model system for these studies.
BBM fractions were prepared from rat small intestinal mucosa as described by Ahnen et al. (1982) J. Biol. Chem. 257, 12129-35. […] No proline aminopeptidase (EC 3.4.11.5) or prolyl endopeptidase activity (PEP, EC 3.4.21.26) activity was detectable (<5 μU/μg). Alkaline phosphatase and sucrase were used as control BBM enzymes with activities of 66 μU/μg and 350 μU/μg, respectively.
BBM fractions were partially purified from the small intestinal mucosa of adult female rats maintained on an ad libitum diet of wheat-based standard rodent chow. Total protein content was determined by a modified method of Lowry with BSA as a standard. Alkaline phosphatase activity was determined with nitrophenyl phosphate. Sucrase activity was measured using a coupled glucose assay.
Proteolysis with the BBM preparation was investigated using the peptide (SEQ ID NO:1) (SEQ ID NO:1) […], a product of chymotryptic digestion of α-9 gliadin (Arentz-Hansen et al. (2000) J. Exp. Med. 191, 603-12). […] It was subjected to BBM digestion, followed by LC-MS-MS analysis. A standard 50 μl digestion mixture contained 100 μM of synthetic peptide, 10 μM tryptophan and Cbz-tryptophan as internal standards, and resuspended BBM preparations with a final protein content of 27 ng/μl and exogenous proteins, as indicated, in phosphate buffered saline. After incubation at 37° C. for the indicated time, the enzymes were inactivated by heating to 95° C. for 3 minutes. The reaction mixtures were analyzed by LC-MS (SpectraSystem, ThermoFinnigan) using a C18 reversed phase column (Vydac 218TP5215, 2.1×150 mm) with water:acetonitrile:formic acid (0.1%):trifluoroacetic acid (0.025%) as the mobile phase (flow: 0.2 ml/min) and a gradient of 10% acetonitrile for 3 minutes, 10-20% for 3 minutes, 20-25% for 21 minutes followed by a 95% wash. Peptide fragments in the mass range of m/z=300-2000 were detected by electrospray ionization mass spectroscopy using a LCQ ion trap, and their identities were confirmed by MSMS fragmentation patterns.

Sequence | proteolysis with trypsin or chymotrypsin [1] | hydrolysis by elastase ([1]; elastase at a high (non-physiological) concentration of 100 ng/μl) | specificity of tTGase relative to its target peptide sequence in fibrinogen [2] [fold] | fraction of peptide proteolyzed in the perfusion experiment [3] [%] | apparent half time of disappearance of the parent peptide (t1/2) ([4]; 27 ng/μl rat BBM protein, 100 μM peptide, 37° C.) [min] | digestion in the presence of exogenous DPP IV ([4]; BBM plus 6-fold excess activity of exogenous fungal DPP IV)
PQPQLPYPQPQLPY | No proteolysis was detected | capable of hydrolyzing | 5 | – | – | –
QLQPFPQPQLPY | – | – | – | > 90 | 35 | complete digestion was observed within four hours
